# pIC50: −log10 of the molar value.
# Assay: Inhibition of angiotensin I phosphorylation catalyzed by the protein-tyrosine kinase p56 lck partially purified from bovine thymus.
row,SMILES,pIC50
1,COc1ccc(/C=C/c2cccnc2)cc1 [3-[(E)-2-(4-Methoxy-phenyl)-vinyl]-pyridine],< 2.42
2,"COc1cc(OC)cc(C(=O)Nc2ccncc2)c1 [3,5-Dimethoxy-N-pyridin-4-yl-benzamide]",2.51
3,"COc1cc(CCc2cccnc2)cc(OC)c1OC [3-[2-(3,4,5-Trimethoxy-phenyl)-ethyl]-pyridine]",< 2.53
4,"COc1cc(CNc2ccccn2)cc(OC)c1OC [Pyridin-2-yl-(3,4,5-trimethoxy-benzyl)-amine]",< 2.54
5,"COc1cc(C(=O)Nc2ccncc2)cc(OC)c1OC [3,4,5-Trimethoxy-N-pyridin-4-yl-benzamide]",< 2.56
6,"COc1cc(CNc2ccccn2)cc(OC)c1 [(3,5-Dimethoxy-benzyl)-pyridin-2-yl-amine]",< 2.48

# Continued by rising pIC50, values first:
row,pIC50,SMILES
1,2.54,c1cc(CCc2ccncc2)ccn1 [4-(2-pyridin-4-ylethyl)pyridine]
2,2.63,O=C(Nc1ccncc1)c1ccncc1 [N-Pyridin-4-yl-isonicotinamide]
3,2.67,O=C(Nc1ccncc1)c1cccnc1
4,2.88,"COc1ccc(CCc2cccnc2)cc1OC [3-[2-(3,4-Dimethoxy-phenyl)-ethyl]-pyridine]"
5,2.91,C(=C\c1ccccn1)/c1ccccn1 [2-[(E)-2-pyridin-2-ylvinyl]pyridine]
6,3.00,"COc1cc(C(=O)Nc2cccnc2)cc(OC)c1OC [3,4,5-Trimethoxy-N-pyridin-3-yl-benzamide]"
7,3.08,"COc1ccc(/C=C/c2ccccn2)cc1OC [2-[(E)-2-(3,4-Dimethoxy-phenyl)-vinyl]-pyridine]"
8,3.69,"COc1cc(OC)cc(C(=O)Nc2ccccn2)c1 [3,5-Dimethoxy-N-pyridin-2-yl-benzamide]"
9,3.75,"COc1ccc(/C=C/c2cccnc2)cc1OC [3-(3,4-dimethoxystyryl)pyridine]"
